In patent US8426414B2, “Modulators of G protein-coupled receptor 88” (Bristol-Myers Squibb Company, priority 2009, dated 2013) one finds EC50 and melting point data, which are given here for 20 molecules.

Where a name gives a salt, the structure may show the parent alone.

G protein-coupled receptor 88, sequence (Q9GZN0 whole entry, species assumed): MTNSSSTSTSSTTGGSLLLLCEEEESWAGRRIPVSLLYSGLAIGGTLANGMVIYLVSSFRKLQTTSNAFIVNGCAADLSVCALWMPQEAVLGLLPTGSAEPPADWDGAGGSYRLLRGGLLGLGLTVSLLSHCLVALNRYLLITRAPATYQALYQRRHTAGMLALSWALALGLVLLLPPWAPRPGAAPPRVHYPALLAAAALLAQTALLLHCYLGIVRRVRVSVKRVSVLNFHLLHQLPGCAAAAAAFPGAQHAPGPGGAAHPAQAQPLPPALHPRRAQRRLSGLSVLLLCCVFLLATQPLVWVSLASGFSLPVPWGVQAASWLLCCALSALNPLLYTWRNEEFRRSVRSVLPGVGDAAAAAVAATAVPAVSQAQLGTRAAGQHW

The target of the first data set is G protein-coupled receptor 88 (Homo sapiens, UniProt Q9GZN0). In words: GPR88 functional assay for the Table 2 EC50 values (GTPγS assay and cAMP HTRF assay described; table does not say which). The class given is cell-based. The following applies: class symbol X; read-out: Range (EC50). The procedure:
96 well GTPγS assay plates were purchased from Perkin Elmer. Wheat Germ Agglutinin PVT SPA beads and […] were purchased from Amersham GDP, GTPγS and all buffer reagents were from Sigma. 384 well white NBS plates were purchased from corning. Pertussis toxin was purchased from Calbiochem. All cell culture reagents were purchased from Invitrogen. Forskolin was purchased from Sigma. The cAMP HTRF kit was purchased from Cisbio International.
The GTPγS assay buffer consisted of 10 mM MgCl2, 180 mM NaCl, 200 uM GDP, 0.167 mg/ml DTT, 1 mM EGTA and 20 mM HEPES pH7.4. This buffer was used for dilution of membranes, beads, and ^35S GTPγS components. To each well of the 96 well assay plate 48 ul assay buffer, 2 ul of 100× compound, 50 ul membrane solution (0.2 ug/ul), 50 ul ^35S GTPγS solution (0.8 nM) and 50 ul of SPA beads (10 mg/ml). Non-specific binding was determined by the addition of cold GTPγS to control wells. The plates were sealed with clear sealing tape and incubated at room temperature for 1 hour. GTPγS activity was detected using a Wallac Micro-Beta Trilux liquid scintillation counter. Non-specific binding was determined using 10 uM cold GTPγS.
The cAMP HTRF assay is modified from the Cisbio International kit procedure 62AM4PEJ. Assay plates were prepared by stamping 0.1 ul of 100× compound stock solutions diluted in DMSO or DMSO alone into 384 well NBS plates. The cAMP HTRF assay was performed using cells in suspension. The cAMP HTRF assay buffer consisted of Hank's Balanced Salt Solution (HBSS), 2 mM CaCl2, 5 mM MgCl2, 20 mM HEPES and 1 mM 3-isobutyl-1-methylxanthine (IBMX) (added fresh at the time of assay). For pertussis toxin treatment pertussis toxin (100 ng/ml) was added to culture medium for 16 hours prior to assay. Confluent cells were disrupted with cell dissociation buffer count cells then centrifuged at 1000×g for 5 minutes. The cell pellet was resuspended in assay buffer alone for basal cAMP measurements or with 0.75 uM forskolin (added immediately prior to addition to wells) for addition to all other wells. Using a Multidrop 384 (Lab systems) 10 ul of cell suspension was added to each well containing compound or DMSO. The plates were incubated at room temperature for 30 minutes covered. During this time the cAMP standard curve was prepared as per manufacturer's instruction. At the end of the incubation 10 ul of anti-cAMP cryptate and 10 ul cAMP-XL, diluted in manufacturer's lysis buffer, were added to each well. The plated were incubated at room temperature for 60 minutes covered then read on an Envision plate reader (Perkin Elmer) and the 665 nm/620 nm fluorescence ratio determined Fluorescence ratio values were converted to molar cAMP concentrations from the standard curve using the GraphPad Prism program.
Regarding `CCCc1ccc(-c2ccc(N(CC3(N)CCCC3)C(=O)[C@@H]3C[C@H]3c3cccc(F)n3)cc2)cc1` (relative stereo) [Example 6, Trans-2-(6-fluoro-pyridin-2-yl)-cyclopropanecarboxylic acid (1-amino-cyclopentylmethyl)-(4′-propyl-biphenyl-4-yl)-amide], the EC50 was 3 to 20 nM.

For `CC(C)Oc1ccc(-c2ccc(N(CC3(N)CCCC3)C(=O)[C@@H]3C[C@H]3c3cccc(F)n3)cc2)cc1` (relative stereo) [Example 7, Trans-2-(6-fluoro-pyridin-2-yl)-cyclopropanecarboxylic acid (1-amino-cyclopentylmethyl)-(4′-isopropoxy-biphenyl-4-yl)-amide], the concentration giving a half-maximal response (EC50) was in the range of 3 to 20 nM. Take `COCc1ccc(-c2ccc(N(CC3(N)CCCC3)C(=O)[C@@H]3C[C@H]3c3cccc(F)n3)cc2)cc1` (relative stereo) [Example 8, Trans-2-(6-fluoro-pyridin-2-yl)-cyclopropanecarboxylic acid (1-amino-cyclopentylmethyl)-(4′-methoxymethyl-biphenyl-4-yl)-amide]: the EC50 was 3 to 20 nM. Still for that read-out and setting: in the case of `CCCc1ccc(-c2ccc(N(CC3(N)CCOCC3)C(=O)[C@@H]3C[C@H]3c3ccccn3)cc2)cc1` (relative stereo) [Example 9, Trans-2-Pyridin-2-yl-cyclopropanecarboxylic acid (4-amino-tetrahydro-pyran-4-ylmethyl)-(4′-propyl-biphenyl-4-yl)-amide] it was 3 to 20 nM; in that of `CC[C@H](C)[C@H](N)CN(C(=O)[C@H]1C[C@@H]1c1ccc(F)cn1)c1ccc(-c2ccc(COC)cc2)cc1` (stereo in doubt) [Example 4, (Trans)-2-(5-fluoro-pyridin-2-yl)-cyclopropanecarboxylic acid ((2S,3S)-2-amino-3-methyl-pentyl)-(4′-methoxymethyl-biphenyl-4-yl)-amide], 3 to 20 nM.

On to `CCCC#Cc1ccc(N(C[C@@H](N)[C@@H](C)CC)C(=O)C2CC2c2cccc(F)n2)cc1` (stereo in doubt) [Example 19, (1S,2S)-2-(6-Fluoro-pyridin-2-yl)-cyclopropanecarboxylic acid ((2S,3S)-2-amino-3-methyl-pentyl)-(4-pent-1-ynyl-phenyl)-amide 2TFA], for which the concentration giving a half-maximal response (EC50) fell in the range of 3 to 20 nM.

With `CC[C@H](C)[C@H](N)CN(C(=O)[C@@H]1C[C@H]1c1ccccn1)c1ccc(-c2ccc(COC)cc2)cc1` [Example 1, (1R,2R)-2-Pyridin-2-yl-cyclopropanecarboxylic acid ((2S,3S)-2-amino-3-methyl-pentyl)-(4′-methoxymethyl-biphenyl-4-yl)-amide], the EC50 lay in the range of 3 to 20 nM. In the case of `CC[C@H](C)[C@H](N)CN(C(=O)[C@@H]1C[C@H]1c1ccccn1)c1ccc(-c2ccc(OC(C)C)cc2)cc1` [Example 2, (1R,2R)-2-Pyridin-2-yl-cyclopropanecarboxylic acid ((2S,3S)-2-amino-3-methyl-pentyl)-(4′-isopropoxy-biphenyl-4-yl)-amide], the 50% effective concentration (EC50) lay within 3 to 20 nM. The same measure, in the same setting: in the case of `CC#Cc1ccc(-c2ccc(N(C[C@@H](N)[C@@H](C)CC)C(=O)[C@@H]3C[C@H]3c3ccccn3)cc2)cc1` [Example 5, (1R,2R)-2-pyridin-2-yl-cyclopropanecarboxylic acid ((2S,3S)-2-amino-3-methyl-pentyl)-(4′-prop-1-ynyl-biphenyl-4-yl)-amide] it was 3 to 20 nM; in that of `CCCc1ccc(-c2ccc(N(C[C@@H](N)[C@@H](C)CC)C(=O)[C@H]3C[C@@H]3c3ncccc3F)cc2)cc1` [Example 10], 3 to 20 nM. For the molecule `CCCc1ccc(-c2ccc(N(C[C@@H](N)[C@@H](C)CC)C(=O)C3CC3c3cnccn3)cc2)cc1` (stereo partly drawn) [Example 11, (Trans)-2-pyrazin-2-yl-cyclopropanecarboxylic acid ((2S,3S)-2-amino-3-methyl-pentyl)-(4′-propyl-biphenyl-4-yl)-amide], the EC50 lay within 3 to 20 nM. `CC[C@H](C)[C@H](N)CN(C(=O)[C@@H]1C[C@H]1c1ccccn1)c1ccc(OCC2CCC2)cc1` [Example 13, (1R,2R)-2-Pyridin-2-yl-cyclopropanecarboxylic acid ((2S,3S)-2-amino-3-methyl-pentyl)-(4-cyclobutylmethoxy-phenyl)-amide]: the half-maximal effective concentration (EC50) was in the range of 3 to 20 nM. Still for that read-out and setting: next, `CCCc1ccc(-c2ccc(N(C[C@@H](N)[C@@H](C)CC)C(=O)[C@@H]3C[C@H]3c3cccc(F)n3)cc2)cc1` [Example 14, Trans-2-(6-fluoro-pyridin-2-yl)-cyclopropanecarboxylic acid ((2S,3S)-2-amino-3-methyl-pentyl)-(4′-propyl-biphenyl-4-yl)-amide]: 3 to 20 nM; `CC[C@H](C)[C@H](N)CN(C(=O)[C@@H]1C[C@H]1c1cccc(F)n1)c1ccc(-c2ccc(COC)cc2)cc1` [Example 16, Trans-2-(6-fluoro-pyridin-2-yl)-cyclopropanecarboxylic acid ((2S,3S)-2-amino-3-methyl-pentyl)-(4′-methoxymethyl-biphenyl-4-yl)-amide]: 3 to 20 nM. Same read-out and setting: next, `CC[C@H](C)[C@H](N)CN(C(=O)[C@@H]1C[C@H]1c1ccc(F)cn1)c1ccc(OCC2CCC2)cc1` [Example 17, (1R,2R)-2-(5-Fluoro-pyridin-2-yl)-cyclopropanecarboxylic acid ((2S,3S)-2-amino-3-methyl-pentyl)-(4-cyclobutylmethoxy-phenyl)-amide]: 3 to 20 nM; `CCCc1ccc(-c2ccc(N(C[C@@H](N)[C@@H](C)OC)C(=O)[C@@H]3C[C@H]3c3cnccn3)cc2)cc1` [Example 18, Trans-2-pyrazin-2-yl-cyclopropanecarboxylic acid ((2R,3R)-2-amino-3-methoxy-butyl)-(4′-propyl-biphenyl-4-yl)-amide]: 3 to 20 nM; `CC[C@H](C)[C@H](N)CN(C(=O)[C@@H]1C[C@H]1c1ccc(F)cn1)c1ccc2cc(C3CC3)ccc2c1` [Example 20]: 3 to 20 nM.

Still in this data set, the particulars now being: value given as number; read-out: Range (EC50).
Take `CC[C@H](C)[C@H](N)CN(C(=O)[C@@H]1C[C@H]1c1ccc(F)cn1)c1ccc(OCC2CCC2)cc1` [Example 12, 2-(5-Fluoro-pyridin-2-yl)-cyclopropanecarboxylic acid ((2S,3S)-2-amino-3-methyl-pentyl)-(4-cyclobutylmethoxy-phenyl)-amide]: the concentration for a half-maximal effect (EC50) stood at 20 nM. Still for that read-out and setting: in the case of `CC[C@H](C)[C@H](N)CN(C(=O)[C@@H]1C[C@H]1c1cccc(F)n1)c1ccc(-c2ccc(OC(C)C)cc2)cc1` [Example 15, Trans-2-(6-fluoro-pyridin-2-yl)-cyclopropanecarboxylic acid ((2S,3S)-2-amino-3-methyl-pentyl)-(4′-isopropoxy-biphenyl-4-yl)-amide] it was 8 nM.

Test system in a further data set: not given
Test: not given
Conditions: not given
`CCCc1ccc(-c2ccc(N(CC3(N)CCOCC3)C(=O)[C@@H]3C[C@H]3c3ccccn3)cc2)cc1` (relative stereo) (as salt: hydrochloride) [Example 9, Trans-2-Pyridin-2-yl-cyclopropanecarboxylic acid (4-amino-tetrahydro-pyran-4-ylmethyl)-(4′-propyl-biphenyl-4-yl)-amide] yielded a melting point of 180 to 183 °C.
